The values that follow are results of earlier work, collected in US6689302B2, “Method of making an antimicrobial tympanostomy tube” (Medtronic Xomed, Inc., priority 1993, dated 2004).

This data set deals with postoperative otorrhea. Conditions: Baker and Chole trial; ophthalmic solution used as otic drops.

Regarding Gentamicin, the incidence of infection result is recorded as “significantly reduced”.
